Data on ten compounds can be found in US20250223560A1, “NOX4 INHIBITOR COMPOSITIONS AND METHODS FOR REGENERATION OF DYSTROPHIC MUSCLE” (FULCRUM THERAPEUTICS, INC., priority 2022, published 2025).

The conditions of data set [1]: as described; cited from earlier work.
For data set [2], the system named is Bone Marrow Derived Mesenchymal Stem Cells, human (BM-MSC); myofibroblast content. The data set can be described thus: Myofibroblast reduction phenotype in TGF-beta-1 fibrogenic differentiation culture (high-content imaging). It counts as cell-based. The method, then: (§1) Bone Marrow Derived Mesenchymal Stem Cells, human (BM-MSC, ATCC PCS-500-012) were cultured in medium composed of Mesenchymal Stem Cell Basal Medium foe Adipose, Umbilcal and Bone Marrow-derived MSCs (ATCC PCS-400030 and Mesenchymal Stem Cell Growth for Bone Marrow-derived MSCs (ATCC PCS-500-041). Cells were seeded at a density of 15,000 cells/well in a 96-well format.
(§2) To induce fibrogenic differentiation BM-MSCs were cultured in a medium composed by Dulbecco's Modified Eagle Medium, 2% horse serum (HS) (Sigma H1270) and 5-10 ng/ml TGF-beta-1 (PreproTech 100-21). Cells were cultured in basal media for 2 days before being switched to fibrogenic differentiation media for 5 days, after which they were taken down for downstream assays. Compound treatment was added when media was switched to fibrogenic differentiation media, cells were treated with 0.1% DMSO if not receiving compound.
(§3) Cells were fixed in 4% PFA for 10 min at RT. Fixed cells were washed three times in 1×PBS and incubated in permeabilization solution (0.5% Triton X-100 in 1×PBS) for 10 min. Unspecific binding were saturated by incubating samples in blocking solution (5% donkey serum in 1×PBS) for 1 h. The cells were incubated at RT for 1 hour with gentle shaking in the presence of primary antibody against, alpha-smooth muscle actin (1:1000, Sigma™ A5228). The cells were washed three times with 0.05% Tween-20 in 1×PBS and incubated, for 1 hour at RT, with host-specific secondary antibodies in addition to counterstaining for Alexa Fluor Plus 750 Phalloidin (1:2000, Invitrogen™, A30105) and DAPI (1:2000). Primary and secondary antibodies were diluted according to the manufacturer's recommendations in blocking solution+0.1% Triton X-100. Finally, the cells were washed three times with 0.05% Tween-20 in 1×PBS, washed twice with 1×PBS and stored at 4° C. Images were acquired on a Thermo Scientific™ CellInsight™ CX7LED high content analysis (HCA) imaging instrument using a 10× objective. Nine fields per well were captured for quantification.
Columbus™ software (version 2.9.1, Perkin Elmer®) was used for analysis of acquired images. A custom analysis pipeline was constructed to quantify the percentage of myofibroblasts within the well. First, nuclei were segmented using “Method B” and intensity and morphology properties were calculated using standard settings. Second, viable nuclei were identified by gating on nuclei intensity, area, and roundness of the segmented objects. Next, a region of interest was then defined around the selected viable nuclei by expanding the outer boarder by […]. STAR morphology and SER texture properties were calculated within the region of interest for the alpha-smooth muscle actin and phalloidin channels using the following parameters: profile width=4 px, scale=1 px, Kernel normalization. The calculated morphology and texture properties were used to train a linear classifier consisting of two classes, myofibroblasts and mesenchymal stem cells, by selecting >100 objects in each negative control (DMSO) and positive control (fibrogenic differentiation media) conditions. The linear classifier was then applied to the untrained test wells using a batch analysis to calculate the percentage of myofibroblasts within each image using a formula output (myofibroblasts:number of objects/viable nuclei:number of objects)*100. Results were averaged across the nine fields imaged per well.
The initial six NOX4 inhibitors were assessed in replicate experiments for both potency of myofibroblast reducing activity and an associated IC50 for the myofibroblast reduction phenotype was determined (Table 1).

Data set [3] concerns the target T1, NOX4 (Homo sapiens, UniProt Q9NPH5).
T1 sequence (Q9NPH5 1-578): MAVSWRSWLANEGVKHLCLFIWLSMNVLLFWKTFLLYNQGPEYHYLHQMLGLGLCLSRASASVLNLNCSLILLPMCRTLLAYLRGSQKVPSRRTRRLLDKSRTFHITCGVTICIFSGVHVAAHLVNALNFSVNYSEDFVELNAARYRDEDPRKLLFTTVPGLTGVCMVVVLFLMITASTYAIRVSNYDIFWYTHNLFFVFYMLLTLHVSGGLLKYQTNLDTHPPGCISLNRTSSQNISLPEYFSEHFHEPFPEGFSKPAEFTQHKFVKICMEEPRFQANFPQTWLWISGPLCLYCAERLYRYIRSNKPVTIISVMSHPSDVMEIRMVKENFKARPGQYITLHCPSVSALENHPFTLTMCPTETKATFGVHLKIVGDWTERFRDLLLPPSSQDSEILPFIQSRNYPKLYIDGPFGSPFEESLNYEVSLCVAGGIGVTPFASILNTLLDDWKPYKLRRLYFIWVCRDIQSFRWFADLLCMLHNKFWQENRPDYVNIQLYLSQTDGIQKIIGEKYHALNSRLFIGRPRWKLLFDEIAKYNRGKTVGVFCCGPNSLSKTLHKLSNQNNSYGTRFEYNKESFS
T1 sequence (P13498 1-195 partner): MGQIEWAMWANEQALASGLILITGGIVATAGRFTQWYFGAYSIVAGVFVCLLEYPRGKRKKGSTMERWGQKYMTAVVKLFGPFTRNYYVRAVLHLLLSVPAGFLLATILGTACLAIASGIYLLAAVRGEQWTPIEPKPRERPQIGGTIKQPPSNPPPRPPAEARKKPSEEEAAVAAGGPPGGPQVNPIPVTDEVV
To be noted: cited from earlier work.

The test system of data set [4] is mesenchymal stem cells. Description: Phalloidin (F-actin) / alpha-SMA staining of treated mesenchymal stem cells. Format: cell-based, human. The settings on record: for phalloidin (F-actin) staining / α-SMA immunofluorescence and phalloidin (F-actin) staining: 1 μM; for α-SMA immunofluorescence and phalloidin (F-actin) staining: FIG. 15. The method, then: as §1, §2, §3

Data set [5] concerns cells. The settings on record: as described in the art; cited from earlier work.
Data set [6] concerns myoblast-FAP co-cultures. To be noted: 0.1 uM, 3 days of differentiation, vs DMSO.
Excerpt: The impact of NOX4 inhibition on myogenic differentiation in myoblast-FAP co-cultures was investigated using primary myoblasts isolated from wild-type, uninjured mouse muscles and FAPs isolated from cardiotoxin-injured muscles of ROSA26-tdTomato mice (such mice contain cells that constitutively express the tdTomato fluorescent marker). […] Following 3 days of differentiation, cells were fixed in 4% paraformaldehyde (PFA) and stained for myosin heavy chain (MHC; marker of myogenic differentiation).
Setting [7] is: Homo sapiens, BMMSC, first experiment, read-out: IC50 Phenotype (myofibroblast reduction).
Setting [8] is: Homo sapiens, BMMSC, replicate experiment, read-out: IC50 Phenotype Replicate.
Where [9] appears, read: reported value, read-out: Reported Potency, IC50.

SMILES strings stand for the structures. Read-outs that look alike come from different tables or passages of the source.

On to `Cc1c2c(=O)n(-c3ccccc3Cl)[nH]c2cc(=O)n1Cc1ccccn1` [FTX8018], for which the oral bioavailability entry in data set [1] was “orally bioavailable”. For the same compound, the IC50 in data set [2] (setting [7]) is 0.149 µM.
`CC(CNS(=O)(=O)c1ccc(C(F)(F)F)cc1)N1CCc2ccccc21` (stereo not drawn) [FTX7974]: the figures for the IC50 in data set [2] (setting [7]), in data set [2] (setting [8]) and in data set [3] (setting [9]) were 0.357 µM, 0.333 µM and 2 µM, respectively. In data set [4], the “phalloidin (F-actin) staining” value is recorded as “significant phalloidin staining”. Moreover, in data set [4], the “α-SMA immunofluorescence and phalloidin (F-actin) staining” value (“α-SMA immunofluorescence and phalloidin” below) is “exhibited both α-SMA immunofluorescence and phalloidin (F-actin) staining”.
Turning to `COc1cc(NC(=O)c2ccc3cc(Cl)ccc3c2)c(C(=O)O)cc1C#N` [FTX7995], the values for the IC50 in data set [2] (setting [7]), in data set [2] (setting [8]) and in data set [3] (setting [9]) were 0.0088 µM, 0.0109 µM and 0.002 µM, respectively. Besides, the phalloidin staining result is “exhibited phalloidin staining” in data set [4] (10 nM); “enhanced phalloidin staining” in data set [4] (100 nM and 1 μM). Moreover, the “phalloidin (F-actin) staining” value in data set [4] is “significant phalloidin staining”. Moreover, in data set [4], the “α-SMA immunofluorescence and phalloidin” value was “exhibited both α-SMA immunofluorescence and phalloidin (F-actin) staining”.
Regarding `O=c1c2c3n(c(=O)cc2[nH]n1-c1ccccc1Cl)CCCN(Cc1ccccc1)C3` [FTX7990], the oral bioavailability result in data set [1] is on record as “orally bioavailable”. The IC50 amounted to 0.158 µM in data set [2] (setting [7]) and 0.149 µM in data set [2] (setting [8]). In addition, the “reduction of myofibroblast content (concentration-response)” value in data set [2] (treated cells in culture) is listed as “dose-dependent reduction of myofibroblast content”. Moreover, the Ki in data set [3] (reported value, read-out: Reported Potency, Ki) was 0.07 µM.
Take `CCCc1c(-c2ccccc2)nn(-c2ccccn2)c1O` [FTX7973]: the IC50 was 0.638 µM in data set [2] (first experiment, unit nm [sic], read-out: IC50 Phenotype (myofibroblast reduction)) and 0.781 µM in data set [2] (replicate experiment, unit nm [sic], read-out: IC50 Phenotype Replicate).
As for `CCOC(=O)c1c(NC(=O)CN2CCN(C(=O)c3ccco3)CC2)sc2c1CCC2` [FTX7971], in data set [1], the oral bioavailability result was “orally bioavailable”. Besides, the values for the IC50 in data set [2] (setting [7]) and in data set [2] (setting [8]) were 4.03 µM and 5.21 µM, respectively. The “concentration of described activity in cells” value in data set [5] was “about 5 μM”.
`Cc1ccc(N2CCN(Cc3nc(N)nc(Nc4ccc(C)c(C)c4)n3)CC2)cc1` [FTX7983]: the IC50 in data set [2] (Homo sapiens, BMMSC, first experiment, unit nm [sic], read-out: IC50 Phenotype (myofibroblast reduction)) was determined as 0.331 µM; in data set [2] (Homo sapiens, BMMSC, replicate experiment, unit nm [sic], read-out: IC50 Phenotype Replicate), 0.401 µM. Moreover, in data set [4], the “α-SMA immunofluorescence and phalloidin” value was “exhibited both α-SMA immunofluorescence and phalloidin (F-actin) staining”.
With `Cc1ccccc1CCNS(=O)(=O)c1c(Cl)cc(Br)cc1Cl` [FTX7981], the IC50 in data set [2] (setting [7]) was 0.253 µM; in data set [2] (setting [8]), 0.342 µM; in data set [3] (reported, read-out: IC50 NOX4), 0.3 µM. Moreover, the “α-SMA immunofluorescence and phalloidin” value in data set [4] is “exhibited both α-SMA immunofluorescence and phalloidin (F-actin) staining”.
With `c1ccc2c(c1)[I+]c1ccccc1-2` [DPI, diphenyleneiodonium chloride], in data set [6], the “MHC-positive myocytes (number of cells per mm^2)” value is recorded as “statistically significant increase” and the “myogenic differentiation of myoblasts (MHC staining)” value is “significantly increased”.
As for `c1ccc(Cn2nnc3c(Sc4nc5ccccc5o4)ncnc32)cc1` [FTX7972], the IC50 is 0.889 µM in data set [2] (setting [7]) and 0.898 µM in data set [2] (setting [8]).
